Assays:
[1] = target: T1, human MetAP2 enzyme (Homo sapiens, UniProt P50579); assay: MetAP2 enzyme assay, MetAP2 enzyme complexed with cobalt ions; details: MetAP2 Co pIC50, 10 μM CoCl2; -log(IC50), IC50 molar
[2] = target: T1, human MetAP2 enzyme; assay: MetAP2 enzyme assay, MetAP2 enzyme complexed with manganese ions; details: MetAP2 Mn pIC50, 10 μM MnCl2; -log(IC50), IC50 molar
Protocol: DNA encoding the full-length sequence of human MetAP2 enzyme is amplified by PCR and cloned into a pFastBac expression vector (Invitrogen). Recombinant baculovirus incorporating the MetAP2 construct is generated by transposition using the Bac-to-Bac system (Invitrogen). The expression of recombinant protein is carried out by infection of Spodoptera frugiperda Sf9 cells (Invitrogen) in 5L Wave Bioreactors (Wave Biotech). Recombinant protein is isolated from cellular extracts by binding to an SP Hitrap Fast Flow or SP Sepharose (Sigma) column, and the protein is eluted using a NaCl gradient. Partially purified extracts of MetAP2 are further purified by an AKTA FPLC over a Superdex-200 column (GE). The purity of MetAP2 protein is determined on denaturing SDS-PAGE gel.
The results for each well are expressed as percent inhibition and calculated using the equation:

T1 sequence (P50579 whole entry): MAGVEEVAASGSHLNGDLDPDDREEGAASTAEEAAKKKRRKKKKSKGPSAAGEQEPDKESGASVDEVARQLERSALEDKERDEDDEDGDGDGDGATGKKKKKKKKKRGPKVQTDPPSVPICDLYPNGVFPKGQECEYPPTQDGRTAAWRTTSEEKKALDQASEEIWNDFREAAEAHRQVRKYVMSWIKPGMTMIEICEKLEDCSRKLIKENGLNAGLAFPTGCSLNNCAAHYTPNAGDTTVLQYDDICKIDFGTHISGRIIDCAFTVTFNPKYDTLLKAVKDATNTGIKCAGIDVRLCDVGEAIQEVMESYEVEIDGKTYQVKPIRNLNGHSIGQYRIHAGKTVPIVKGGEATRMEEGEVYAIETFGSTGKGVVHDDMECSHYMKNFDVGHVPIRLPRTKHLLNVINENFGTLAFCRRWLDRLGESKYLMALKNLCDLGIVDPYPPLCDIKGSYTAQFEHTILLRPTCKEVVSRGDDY

| SMILES | IC50 [1] [nM] | IC50 [2] [nM] |
| --- | --- | --- |
| Cc1nc(N2CCC(F)CC2)ncc1-n1c2ccc(F)cc2c2[nH]ncc21 [Example 57, 7-Fluoro-4-(2-(4-fluoropiperidin-1-yl)-4-methylpyrimidin-5-yl)-1,4-dihydropyrazolo[4,3-b]indole] | 25.1 | 12.6 |
| Fc1ccc2c(c1)c1[nH]ncc1n2-c1cnn2c1CNCC2 [Example 25, 7-Fluoro-4-(4,5,6,7-tetrahydropyrazolo[1,5-a]pyrazin-3-yl)-1,4-dihydropyrazolo[4,3-b]indole] | 25.1 | 12.6 |
| Cc1nc(NC[C@@H](C)O)ncc1-n1c2ccc(F)cc2c2[nH]ncc21 [Example 93, (2R)-1-((5-(7-Fluoropyrazolo[4,3-b]indol-4(1H)-yl)-4-methylpyrimidin-2-yl)amino)propan-2-ol] | 7.94 | 6.31 |
| Cc1c(-n2c3ccc(F)cc3c3[nH]ncc32)cnc2[nH]c(=O)[nH]c12 [Example 28, 6-(7-Fluoropyrazolo[4,3-b]indol-4(1H)-yl)-7-methyl-1H-imidazo[4,5-b]pyridin-2(3H)-one] | 6.31 | 5.01 |
| Cc1nc(N2CC[C@H](C(=O)NCCO)C2)ncc1-n1c2ccc(F)cc2c2[nH]ncc21 [Example 103, (3S)-1-(5-(7-Fluoropyrazolo[4,3-b]indol-4(1H)-yl)-4-methylpyrimidin-2-yl)-N-(2-hydroxyethyl)pyrrolidine-3-carboxamide] | 6.31 | 10 |
| Cc1nc(N2CC[C@H](F)C2)ncc1-n1c2ccc(F)cc2c2[nH]ncc21 [Example 34, 7-Fluoro-4-(2-((S)-3-fluoropyrrolidin-1-yl)-4-methylpyrimidin-5-yl)-1,4-dihydropyrazolo[4,3-b]indole] | 63.1 | 79.4 |
| COCCNC(=O)c1cc(C)c(-n2c3ccc(F)cc3c3[nH]ncc32)cn1 [Example 105, 5-(7-Fluoropyrazolo[4,3-b]indol-4(1H)-yl)-N-(2-methoxyethyl)-4-methylpicolinamide] | 50.1 | 63.1 |
| Cc1nc(N2CCNC(=O)C2)ncc1-n1c2ccc(F)cc2c2[nH]ncc21 [Example 44, 4-(5-(7-Fluoropyrazolo[4,3-b]indol-4(1H)-yl)-4-methylpyrimidin-2-yl)piperazin-2-one] | 7.94 | 10 |
| Cc1nc(C(=O)NC2(CO)CC2)ccc1-n1c2ccc(F)cc2c2[nH]ncc21 [Example 100, 5-(7-Fluoropyrazolo[4,3-b]indol-4(1H)-yl)-N-(1-(hydroxymethyl)cyclopropyl)-6-methylpicolinamide] | 12.6 | 12.6 |
| Cc1nc(N2CC(F)(F)C2)ncc1-n1c2ccc(F)cc2c2[nH]ncc21 [Example 43, 4-(2-(3,3-Difluoroazetidin-1-yl)-4-methylpyrimidin-5-yl)-7-fluoro-1,4-dihydropyrazolo[4,3-b]indole] | 12.6 | 12.6 |
| O=c1[nH]c(N2CC[C@@H](O)C2)ncc1-n1c2ccc(F)cc2c2[nH]ncc21 [Example 84, (R)-5-(7-Fluoropyrazolo[4,3-b]indol-4(1H)-yl)-2-(3-hydroxypyrrolidin-1-yl)pyrimidin-4(3H)-one] | 20 | 10 |
| Cc1nc(N2C[C@@H](O)[C@H](O)C2)ncc1-n1c2ccc(F)cc2c2[nH]ncc21 [Example 76, (3R,4R)-1-(5-(7-Fluoropyrazolo[4,3-b]indol-4(1H)-yl)-4-methylpyrimidin-2-yl)pyrrolidine-3,4-diol] | 10 | 6.31 |
| Cc1nc(N2CCO[C@@H](CO)C2)ncc1-n1c2ccc(F)cc2c2[nH]ncc21 [Example 77, ((2R)-4-(5-(7-Fluoropyrazolo[4,3-b]indol-4(1H)-yl)-4-methylpyrimidin-2-yl)morpholin-2-yl)methanol] | 7.94 | 10 |
| OCc1nn(C(F)F)cc1-n1c2ccc(F)cc2c2[nH]ncc21 [Example 134, (1-(Difluoromethyl)-4-(7-fluoropyrazolo[4,3-b]indol-4(1H)-yl)-1H-pyrazol-3-yl)methanol] | 15.8 | 6.31 |
| Cc1nc(C(=O)NCCO)ccc1-n1c2ccc(F)cc2c2[nH]ncc21 [Example 96, 5-(7-Fluoropyrazolo[4,3-b]indol-4(1H)-yl)-N-(2-hydroxyethyl)-6-methylpicolinamide] | 20 | 12.6 |
| Cc1nc2c(cc1-n1c3ccc(F)cc3c3[nH]ncc31)ncn2C[C@H](O)CO [Example 79, (2S)-3-(6-(7-Fluoropyrazolo[4,3-b]indol-4(1H)-yl)-5-methyl-3H-imidazo[4,5-b]pyridin-3-yl)propane-1,2-diol] | 15.8 | 25.1 |
| CNC(=O)[C@@H]1CCCN1c1ncc(-n2c3ccc(F)cc3c3[nH]ncc32)c(C)n1 [Example 38, (2S)-1-(5-(7-Fluoropyrazolo[4,3-b]indol-4(1H)-yl)-4-methylpyrimidin-2-yl)-N-methylpyrrolidine-2-carboxamide] | 6.31 | 7.94 |
| Cc1cc(C(=O)N2CC(O)C2)ncc1-n1c2ccc(F)cc2c2[nH]ncc21 [Example 94, (5-(7-Fluoropyrazolo[4,3-b]indol-4(1H)-yl)-4-methylpyridin-2-yl)(3-hydroxyazetidin-1-yl)methanone] | 10 | 7.94 |
| CNc1cc(C)c(-n2c3ccc(F)cc3c3[nH]ncc32)cn1 [Example 45, 5-(7-Fluoropyrazolo[4,3-b]indol-4(1H)-yl)-N,4-dimethylpyridin-2-amine] | 6.31 | 12.6 |
| Cc1nc(N2CCN(C)C(=O)C2)ncc1-n1c2ccc(F)cc2c2[nH]ncc21 [Example 39, 4-(5-(7-Fluoropyrazolo[4,3-b]indol-4(1H)-yl)-4-methylpyrimidin-2-yl)-1-methylpiperazin-2-one] | 6.31 | 7.94 |
| Cc1nc(N[C@@H](C)CO)ncc1-n1c2ccc(F)cc2c2[nH]ncc21 [Example 91, (2S)-2-((5-(7-Fluoropyrazolo[4,3-b]indol-4(1H)-yl)-4-methylpyrimidin-2-yl)amino)propan-1-ol] | 6.31 | 12.6 |
| N#Cc1[nH]ncc1-n1c2ccc(F)cc2c2[nH]ncc21 [Example 22, 4-(7-Fluoropyrazolo[4,3-b]indol-4(1H)-yl)-1H-pyrazole-5-carbonitrile] | 31.6 | 10 |
| Cc1nc(N2CCC(CO)CC2)ncc1-n1c2ccc(F)cc2c2[nH]ncc21 [Example 59, (1-(5-(7-Fluoropyrazolo[4,3-b]indol-4(1H)-yl)-4-methylpyrimidin-2-yl)piperidin-4-yl)methanol] | 12.6 | 10 |
| Cc1nc(N2CC[C@@H](F)C2)ncc1-n1c2ccc(F)cc2c2[nH]ncc21 [Example 36, 7-Fluoro-4-(2-((R)-3-fluoropyrrolidin-1-yl)-4-methylpyrimidin-5-yl)-1,4-dihydropyrazolo[4,3-b]indole] | 39.8 | 63.1 |
| Cc1cc2nn(C)cc2cc1-n1c2ccc(F)cc2c2[nH]ncc21 [Example 15, 4-(2,6-Dimethyl-2H-indazol-5-yl)-7-fluoro-1,4-dihydropyrazolo[4,3-b]indole] | 10 | 10 |
| Cc1nc(NC[C@H](C)O)ncc1-n1c2ccc(F)cc2c2[nH]ncc21 [Example 92, (2S)-1-((5-(7-Fluoropyrazolo[4,3-b]indol-4(1H)-yl)-4-methylpyrimidin-2-yl)amino)propan-2-ol] | 10 | 7.94 |

— patent US9475816B2, “Substituted-1,4-dihydropyrazolo[4,3-b]indoles” (TAKEDA PHARMACEUTICAL COMPANY LIMITED, priority 2012, dated 2016)
